Columns and labels:
E. coli = assay: Double dilution test; format: cell-based
From the text: (§1) The double dilution test is a MIC measurement test made on successive dilutions of the 2 products of the composition. […] The summary table expresses for each strain and for each dilution of the booster the measured antibiotic MIC.
(§2) The code enabling the results to be interpreted is the following one: no sign “^+” if the MIC is equivalent with and without booster, a sign “^+” if the value is lower with booster.

Staphylococcus [1] = assay: Double dilution test; format: cell-based; conditions: strain 8148
From the text: as §1, §2

Pseudomonas aeruginosa = assay: MIC measurement in agar solid medium (CLSI); format: cell-based
From the text: (§3) Inhibitory minimum concentration measurement tests are made in a solid agar medium according to international standards in force (CLSI M7-A9 Jan 12 standards): dispersion of the compounds to be tested in a Mueller Hinton gelose. An adaptation relating to the hydrophobicity of compounds and compositions is however necessary to disperse them in the medium: dilution of the compounds in a solvent. The compounds and compositions incorporated in the agar medium can be diluted beforehand in one or more solvents (Tween® 80 diluted with water, tween® 80 diluted with propylene, DMSO diluted with water). The strains are deposited onto the agar surface with a steers apparatus. In the examples, different dissolution methods for products are tested in parallel to circumvent the problems of water/solvent distribution coefficient of the molecules (antimicrobial and potentiator) whereas the bacteria grow only in the aqueous phase. The technical requirement will not intervene in in vivo tests. The same dilution methods can be implemented in a liquid medium (microplates and tubes). The same methodology is implemented with fungi.
MIC measurement: the minimum inhibitory concentration measurement tests are made in an agar solid medium according to international standards in force (CLSI standards), according to the previously defined protocol. The compounds and compositions incorporated in the agar medium can be diluted beforehand in one or more solvents (Tween® 80 diluted with water—3.4 ml Tween for 9.6 ml water—, tween® 80 diluted with propylene 10-3.4 ml Tween for 9.6 ml propylene—, or DMSO diluted with water).
The booster contribution as compared with the MIC of the antibiotic alone is expressed in a (MIC ATB)/(MIC ATB+booster) ratio. Thereby, gains are defined:
MIC 50 gain=(MIC50 of the antibiotic alone)/(MIC50 (antibiotic+booster))
MIC 90 gain=(MIC90 of the antibiotic alone)/(MIC90 (antibiotic+booster))
The tested strains are isolated from various human samples (blood, urine, pulmonary aspirates, etc.). The strains investigated in the following examples are chosen from the strains of the following table: […]

strains = assay: MIC of cineol alone, strains not named; format: cell-based; conditions: cineol used alone; strains of the etest example
[2] = system: microorganisms grown in planktonic and biofilm cultures; conditions: Hendry et al, J Antimicrob Chemother 2009; cited from earlier work
MRSA = assay: Sepsis model, in vivo test 2; set-up: species or system CD1 mice; conditions: CIN 32 mg/kg without antibiotic; subcutaneous; count at 24 h
Method: 200 μL of a bacterial solution (MRSA) adjusted to 5.108 UFC/ml is injected by the intravenous route (retro-orbital route) to CD1 mice. The treatment is initiated 1 h after the bacteria injection by the subcutaneous route.
At 24 h, the mice are euthanized and a bacterial count is made in the kidney.
Controls: untreated group, group receiving 32 mg/kg cineol without antibiotic (CIN), group receiving 8 mg/kg antibiotic without cineol (AMC8). • (*) p<0.05 vs control, AMC8 and CIN • (£) p<0.05 vs control and CIN • ($) p<0.05 vs control, AMC8, CIN, AMC+CIN 128, AMC+CIN 256

Escherichia coli = assay: MIC measurement in agar solid medium (CLSI); format: cell-based
From the text: as §3, with “fungi. MIC measurement: the minimum inhibitory concentration measurement tests are made in an agar solid medium according to international standards in force (CLSI standards), according to the previously defined protocol. […] The booster contribution as compared with the MIC of the antibiotic alone is expressed in a (MIC ATB)/(MIC ATB+booster) ratio. Thereby, gains are defined: […] The tested strains are isolated from various human samples (blood, urine, pulmonary aspirates, etc.). The strains investigated in the following examples are chosen from the strains of the following table: [table] […] The MICs are measured on different strains. Then, the MIC gain is calculated on the strains belonging to the same genus. The MIC gain expresses the following ratio: […]” for “fungi.”

Staphylococcus [3] = assay: MIC measurement in agar solid medium (CLSI); format: cell-based
From the text: as §3, with “fungi. MIC measurement: the minimum inhibitory concentration measurement tests are made in an agar solid medium according to international standards in force (CLSI standards), according to the previously defined protocol. […] The booster contribution as compared with the MIC of the antibiotic alone is expressed in a (MIC ATB)/(MIC ATB+booster) ratio. Thereby, gains are defined: […] The tested strains are isolated from various human samples (blood, urine, pulmonary aspirates, etc.). The strains investigated in the following examples are chosen from the strains of the following table: [table] […] The MICs are measured on different strains. Then, the MIC gain is calculated on the strains belonging to the same genus. The MIC gain expresses the following ratio: […]” for “fungi.”

strain 08150 = assay: Post antibiotic effect; format: cell-based
MRSA 10168 = conditions: mouse, in vivo
Method: To Balb/c mice, is injected (Sc.) the antimicrobial product or the antimicrobial+booster mixture.
At different post-injection times, the mice are euthanised, and blood sampled, heparined and centrifuged to extract plasma thereof
Antibacterial effects are measured after 24 h incubation. The successive dilutions enable the antimicrobial effect to be determined and compared with the MIC. The efficient concentration/MIC ratio is thus determined.

Molecule: CC12CCC(CC1)C(C)(C)O2 [Cineol, cineol]
- MIC of cineol alone (E. coli; strain 8137): > 2.5 µg/mL
- MIC of cineol alone (E. coli; strain 8151): > 2.5 µg/mL
- MIC of cineol alone (E. coli; strain 8155): > 2.5 µg/mL
- MIC of cineol alone (E. coli; strain 8156): > 2.5 µg/mL
- MIC of cineol alone (E. coli; strain ATCC 25922): > 2.5 µg/mL
- MIC of cineol alone (Staphylococcus [1]): > 2.5 µg/mL
- MIC 50 of cineol alone (Pseudomonas aeruginosa; DMSO): 1%
- MIC 90 of cineol alone (Pseudomonas aeruginosa; DMSO): 1%
- MIC 50 of cineol alone (Pseudomonas aeruginosa; Tween/prop glyc): >1%
- MIC 90 of cineol alone (Pseudomonas aeruginosa; Tween/prop glyc): >1%
- MIC 50 of cineol alone (Pseudomonas aeruginosa; Tween/water): >1%
- MIC 90 of cineol alone (Pseudomonas aeruginosa; Tween/water): >1%
- MIC 50 of cineol alone (Pseudomonas aeruginosa; water/water): >1%
- MIC 90 of cineol alone (Pseudomonas aeruginosa; water/water): >1%
- MIC50 (strains): > 10000 µg/mL
- MIC of cineole [2]: 8000 to 64000 µg/mL
- Mean ± SD log10 UFC/g kidney (MRSA): 6.35 ± 0.29 log10 UFC/g kidney
- MIC 50 of cineol alone (Escherichia coli; DMSO): >1%
- MIC 90 of cineol alone (Escherichia coli; DMSO): >1%
- MIC 50 of cineol alone (Escherichia coli; Tween/prop glyc): >1%
- MIC 90 of cineol alone (Escherichia coli; Tween/prop glyc): >1%
- MIC 50 of cineol alone (Escherichia coli; Tween/water): >1%
- MIC 90 of cineol alone (Escherichia coli; Tween/water): >1%
- MIC 50 of cineol alone (Escherichia coli; water/water): >1%
- MIC 90 of cineol alone (Escherichia coli; water/water): >1%
- MIC 50 of cineol alone (Staphylococcus [3]; DMSO): >1%
- MIC 90 of cineol alone (Staphylococcus [3]; DMSO): >1%
- MIC 50 of cineol alone (Staphylococcus [3]; Tween/prop glyc): >1%
- MIC 90 of cineol alone (Staphylococcus [3]; Tween/prop glyc): >1%
- MIC 50 of cineol alone (Staphylococcus [3]; Tween/water): >1%
- MIC 90 of cineol alone (Staphylococcus [3]; Tween/water): >1%
- MIC 50 of cineol alone (Staphylococcus [3]; water/water): >1%
- MIC 90 of cineol alone (Staphylococcus [3]; water/water): >1%
- number of bacteria (strain 08150; time 0 h after 16 h contact, Cineol 4 mg/L (AC, where present, at its MIC)): 2.17E+07
- number of bacteria (strain 08150; time 0 h after 16 h contact, Cineol 16 mg/L (AC, where present, at its MIC)): 2.20E+07
- number of bacteria (strain 08150; time 1 h after 16 h contact, Cineol 4 mg/L (AC, where present, at its MIC)): 4.92E+07
- number of bacteria (strain 08150; time 1 h after 16 h contact, Cineol 16 mg/L (AC, where present, at its MIC)): 3.88E+07
- number of bacteria (strain 08150; time 2 h after 16 h contact, Cineol 4 mg/L (AC, where present, at its MIC)): 5.50E+07
- number of bacteria (strain 08150; time 2 h after 16 h contact, Cineol 16 mg/L (AC, where present, at its MIC)): 6.40E+07
- number of bacteria (strain 08150; time 3 h after 16 h contact, Cineol 4 mg/L (AC, where present, at its MIC)): 3.90E+08
- number of bacteria (strain 08150; time 3 h after 16 h contact, Cineol 16 mg/L (AC, where present, at its MIC)): 2.70E+08
- number of bacteria (strain 08150; time 4 h after 16 h contact, Cineol 4 mg/L (AC, where present, at its MIC)): 3.50E+08
- number of bacteria (strain 08150; time 4 h after 16 h contact, Cineol 16 mg/L (AC, where present, at its MIC)): 4.20E+08
- number of bacteria (strain 08150; time 5 h after 16 h contact, Cineol 4 mg/L (AC, where present, at its MIC)): 5.90E+08
- number of bacteria (strain 08150; time 5 h after 16 h contact, Cineol 16 mg/L (AC, where present, at its MIC)): 5.50E+08
- number of bacteria (strain 08150; time 6 h after 16 h contact, Cineol 4 mg/L (AC, where present, at its MIC)): 6.00E+08
- number of bacteria (strain 08150; time 6 h after 16 h contact, Cineol 16 mg/L (AC, where present, at its MIC)): 5.90E+08

Molecule: amoxicillin/clavulanic acid [Augmentin®]
- Time spent beyond the MIC (MRSA 10168): <4 h
